The term viability denotes a read-out of living cells in per cent, often relative to untreated cells.

From article PMC12040169 (PLOS Biology, 2025) come the findings set out here.

This series in a line: in vitro. To be noted: human, hela cells, % viability.
On to `Cc1cccc(OCC2CCCN(C(=O)CCc3nncn3C)C2)c1` (stereo not shown) [CBK306640], for which the viability at 28.5 h, 10 µM stood at 88.8%.

`Cn1ncc(N2CCC(CNC(=O)c3ccc(F)cc3Cl)C2)cc1=O` (stereo not shown) [CBK306643]: the viability at 28.5 h, 10 µM came to 97.1%. Regarding `CCn1cc(CN2CCC(Oc3cc(C)ccc3F)(C(=O)O)CC2)cn1` [CBK306644], the viability at 28.5 h, 10 µM was found to be 96.1%. Next, `COC(=O)C1CCCN1C(=O)C1(Oc2ccc(C)cc2)CCNCC1` (stereo not shown) [CBK306655]: 96.5%; `CCS(=O)(=O)NC1CC(C)(C)Cc2c1cnn2-c1ccc(OC)cc1` (stereo not shown) [CBK306656]: 116%. Take `CCCCSc1nc(N)cc(N2CCOCC(CN(C)C)C2)n1` (stereo not shown) [CBK306659]: the viability at 28.5 h, 10 µM was 103%. Next, `COc1ccccc1-n1nc(CC(C)C)nc1C(C)NS(C)(=O)=O` (stereo not shown) [CBK306660]: 95.6%; `Cc1[nH]c2ccccc2c1CCNC(=O)N(Cc1cnn(C)c1)C1CC1` [CBK306661]: 89%; `Cc1cccn2c(CN3CC(O)C3)c(C(=O)N3CCCCC3)nc12` [CBK306662]: 88.3%.

For the compound `CCCCC(c1cccnc1)N(C)C(=O)CCc1ccnn1C` (stereo not shown) [CBK306664], the viability at 28.5 h, 10 µM stood at 117%.

Regarding `Cc1nn(C)cc1CN(C)CC(=O)Nc1nc2c(s1)CC(C)CC2` (stereo not shown) [CBK306669], the viability at 28.5 h, 10 µM stood at 90.6%.

On to `CCN1CCN(Cc2cnc(-c3ccccn3)nc2)CC1=O` [CBK306678], for which the viability at 28.5 h, 10 µM was found to be 99.9%. Next, `CC(NC(=O)C1(Cn2ccnc2)CC1)c1nncn1C(C)C` (stereo not shown) [CBK306682]: 99.5%. Next, `CN(Cc1cnn(C)c1)C(=O)COCc1nc2cc(F)ccc2[nH]1` [CBK306687]: 94.3%; `CCOC(=O)C1(NC(=O)C2(Oc3cccnc3C)CCNCC2)CCC1` [CBK306688]: 89.9%; `CN(CCN1CCCC1)c1nccc(N2CCN[C@H]3CS(=O)(=O)C[C@H]32)n1` [CBK306692]: 85.6%. Next, `CC(=O)Nc1ccc(CNC(=O)CN(C)Cc2nc(C3CC3)no2)cc1` [CBK306695]: 114%; `Cc1nc(O)cc(C2CCCN(C(=O)c3csc4c3CCCC4)C2)n1` (stereo not shown) [CBK306696]: 87.3%. On to `CCOc1ccc(NC(=O)N(CCOC)Cc2cnn(C)c2)cc1Cl` [CBK306697], for which the viability at 28.5 h, 10 µM came out at 90.3%. Consider `CCCc1cc(C(=O)N[C@@H]2CCOC[C@H]2Oc2ccc(CO)cc2)cs1` [CBK306700], for which the viability at 28.5 h, 10 µM is 91.6%. For the compound `CC(C)N(C(=O)c1ccccc1-c1cnc2nncn2c1)C(C)C` [CBK306701], the viability at 28.5 h, 10 µM was 99.8%. As for `CN(Cc1nc2c(s1)CCCC2)C(=O)CCn1nnc2ccccc21` [CBK306704], the viability at 28.5 h, 10 µM was determined as 107%. Consider `O=C(NCc1csc2c1CCCC2)N1CCCC(c2cc(O)ncn2)C1` (stereo not shown) [CBK306705], for which the viability at 28.5 h, 10 µM was 99.3%. Next, `O=C(NC1CCNC1)c1cccc(S(=O)(=O)NCc2ccsc2)c1` (stereo not shown) [CBK306706]: 88%; `COc1ccc2cc(C(=O)N3Cc4cnn(CCO)c4C3)n(C)c2c1` [CBK306707]: 94.5%; `CCC(O)c1cc2n(n1)CCN(C(=O)c1cn(-c3ccccc3)nn1)C2` (stereo not shown) [CBK306708]: 93.7%. As for `CCCCCN1CCn2nc(CNc3cnccn3)cc2C1` [CBK306713], the viability at 28.5 h, 10 µM is 77.2%. Next, `Cn1nc(NC(=O)c2cnccn2)c2c(N3CCOCC3)cccc21` [CBK306716]: 100%; `Cc1cnn(-c2cc(N3CCC(n4cc(C5CC5)nn4)CC3)ncn2)c1` [CBK306721]: 96.2%; `Cc1nn(C)cc1-c1c(C#N)c(N)nc2c1CN(Cc1ccco1)CC2` [CBK306722]: 90.4%. On to `COCCN(Cc1cnn(C)c1)Cc1cc(O)c2cc(C)ccc2n1` [CBK306723], for which the viability at 28.5 h, 10 µM was determined as 86.1%. With `COCCNc1nc2c(c(N3CCCCCC3)n1)CCNCC2` [CBK306724], the viability at 28.5 h, 10 µM stood at 104%. With `COc1cccn(CC(=O)N(C)CCc2scnc2C)c1=O` [CBK306726], the viability at 28.5 h, 10 µM is 94.2%.

Turning to `COc1ccc(CN(C)C2CCOCC2)cc1Cn1cncn1` [CBK306728], the viability at 28.5 h, 10 µM is 93.9%. Next, `CCCS(=O)(=O)NC1CC(C)(C)Cc2c1cnn2-c1ccc(OC)cc1` (stereo not shown) [CBK306730]: 103%; `CSc1nc(C(=O)N2CCCCC2c2cccc(F)c2)cs1` (stereo not shown) [CBK306732]: 108%.

In the case of `Cc1cc(C(F)(F)F)n(CC(C)CNC(=O)Cc2csc(C)n2)n1` (stereo not shown) [CBK306733], the viability at 28.5 h, 10 µM turned out to be 87.8%. On to `CCNC(=O)N1CCCC(Cc2ccc(F)cc2F)(C(=O)OCC)C1` (stereo not shown) [CBK306734], for which the viability at 28.5 h, 10 µM amounted to 81.9%. Next, `COCCc1nc(-c2csc(CN(C)C)n2)n(Cc2ccccc2C)n1` [CBK306735]: 107%; `CCc1nccn1CCCNC(=O)Nc1cccnc1` [CBK306736]: 94.6%.

In the case of `CN(C)CC(O)c1cc2n(n1)CCCN(CC(=O)NCc1cccs1)C2` (stereo not shown) [CBK306738], the viability at 28.5 h, 10 µM came out at 91.6%. For the compound `c1cnn(CCNc2nc3nonc3nc2N2CCCCC2)c1` [CBK306740], the viability at 28.5 h, 10 µM was 83.8%.

With `COc1ccc(C(NC(=O)c2cn3ccsc3n2)[C@H]2C[C@H](O)C2)cn1` (stereo partly shown) [CBK306744], the viability at 28.5 h, 10 µM came to 101%. Next, `Cc1ccc(Cl)cc1C(=O)N[C@H]1C[C@@H](c2nnc(CO)n2C2CC2)C1` [CBK306746]: 92.8%; `Cn1ncc(N2CCC(CNC(=O)c3ccccc3Cl)C2)cc1=O` (stereo not shown) [CBK306747]: 95.2%.

With `Cc1cc(C(=O)N2CCC(c3nnc(CN(C)C)n3C)CC2)ccc1F` [CBK306748], the viability at 28.5 h, 10 µM stood at 95.5%. Next, `CCOC(=O)C1CCCN(Cc2nc(-c3ccc(F)cc3F)oc2C)C1` (stereo not shown) [CBK306749]: 94.3%; `CN1CCN(Cc2ccc(-c3ccc(C(N)=O)cc3)nc2)CC1` [CBK306750]: 87.3%. For `Cc1c(C(=O)N2CCCCC2CN2CCOCC2)[nH]c2c(F)cccc12` (stereo not shown) [CBK306751], the viability at 28.5 h, 10 µM amounted to 105%. Next, `CCCN1CCC(NC(=O)c2cc(COc3cccc(F)c3)[nH]n2)CC1` [CBK306753]: 88.5%; `COC1CCN(S(=O)(=O)c2cc(-n3cccn3)ccc2C)C1` (stereo not shown) [CBK306757]: 92.8%; `COc1cc(C)cc(OC)c1-c1ncnc(C)c1C` [CBK306762]: 85.7%.

As to `O=C(CN1CCCCCC1=O)NCC(CO)Cc1ccsc1` (stereo not shown) [CBK306763], the viability at 28.5 h, 10 µM came out at 118%. For `COc1ccc2c(c1)c(C(=O)N1CCn3nc(CO)cc3C1)c(C)n2C` [CBK306764], the viability at 28.5 h, 10 µM is 88.5%. Next, `CN(CCCc1cnn(C)c1)c1nc(N)nc2c1CCCC2` [CBK306766]: 96.5%; `O=C(O)C1(Oc2ccc3ccccc3c2)CCN(CC2CCOC2)CC1` (stereo not shown) [CBK306767]: 91.4%.

As to `CN(Cc1ncc[nH]1)C(=O)c1cn(Cc2cccc(C(F)(F)F)c2)nn1` [CBK306768], the viability at 28.5 h, 10 µM came to 84.4%.

Take `CCN(CCN1CCOCC1)C(=O)c1[nH]c2c(F)cccc2c1C` [CBK306772]: the viability at 28.5 h, 10 µM turned out to be 90.3%. Next, `COc1cccc(CN2CCCC(NC(=O)c3ccccc3Cl)C2)c1` (stereo not shown) [CBK306774]: 117%; `CCc1c(C)nc(C)nc1N1CCCn2nc(C(O)C3CC3)cc2C1` (stereo not shown) [CBK306778]: 100%; `Cn1c(N2CC[C@H](O)C2)nc2cc(C(=O)NC3CCCC3)ccc21` [CBK306779]: 97.6%. For the compound `CCCc1nnc2sc(C3CCCN(C(C)C)C3)nn12` (stereo not shown) [CBK306781], the viability at 28.5 h, 10 µM came out at 85.3%. Next, `CSCCC(=O)NC1CCCc2nc(N3CCC(CO)CC3)ncc21` (stereo not shown) [CBK306782]: 91.3%. Next, `CCc1nc2c(N3CCC(n4nc(C)cc4C)C3)ncnc2o1` (stereo not shown) [CBK306785]: 111%. Next, `CCCCC(c1cccnc1)N(C)C(=O)c1ccnc(-n2cnnc2)c1` (stereo not shown) [CBK306786]: 84.2%; `CC1(C#N)CCCN(C(=O)NC2CCN(Cc3cccc(O)c3)CC2)C1` (stereo not shown) [CBK306787]: 88.2%. `Cc1noc(C)c1CCC(=O)NC(Cc1ccncc1)C1CC(O)C1` (stereo not shown) [CBK306790]: the viability at 28.5 h, 10 µM turned out to be 91%.

With `Cc1cnn(CCNc2cc(C(C)C)nc3ccnn23)c1` [CBK306792], the viability at 28.5 h, 10 µM came out at 91.5%.

Take `CC(C)CN(Cc1cccs1)C(=O)c1cc2n(n1)CCCN(C)C2` [CBK306793]: the viability at 28.5 h, 10 µM amounted to 102%. Take `CCCNC(=O)c1ccc(C)c(NC(=O)NC2CCOC2)c1` (stereo not shown) [CBK306794]: the viability at 28.5 h, 10 µM worked out at 95.8%.

As for `CCCc1nc(NC(c2cccc(C)n2)C2CC2)c2cnn(C)c2n1` (stereo not shown) [CBK306795], the viability at 28.5 h, 10 µM turned out to be 88%. Regarding `CCN(C(=O)Cn1c(C)cc(=O)c2ccccc21)C1CCOC(C)(C)C1` (stereo not shown) [CBK306797], the viability at 28.5 h, 10 µM came to 93.6%. For `CSCCCNC(=O)c1ccc2c(c1)nc(N1CC[C@H](O)C1)n2C` [CBK306807], the viability at 28.5 h, 10 µM is 107%. Regarding `Cn1ncc(N2CCC(CNC(=O)COc3ccccc3)C2)cc1=O` (stereo not shown) [CBK306810], the viability at 28.5 h, 10 µM stood at 92.3%.

On to `Cc1cc(=O)c2ccccc2n1CC(=O)N1CCOC2(CCCC2)C1` [CBK306811], for which the viability at 28.5 h, 10 µM is 93.5%.

Turning to `CCc1nccn1CCC(=O)NC1CCN(Cc2ccncc2)CC1` [CBK306813], the viability at 28.5 h, 10 µM worked out at 107%. Next, `Cn1cccc1CCC(=O)NC1CCN(Cc2ccccc2Cl)CC1` [CBK306814]: 88.4%; `Cc1cc(C(=O)NC(Cn2ccnc2)c2ccccc2)cc(=O)[nH]1` (stereo not shown) [CBK306818]: 94%; `O=C(c1cc(CO)ccn1)N(Cc1ccccn1)CC1CCCO1` (stereo not shown) [CBK306820]: 97%. In the case of `Cn1c(=O)oc2ccc(C(=O)N3CCn4nc(CO)cc4C3)cc21` [CBK306821], the viability at 28.5 h, 10 µM stood at 85.6%. For the compound `Nc1nc(NCCOc2ccccc2Cl)cc(C2CC(N)C2)n1` (stereo not shown) [CBK306825], the viability at 28.5 h, 10 µM came out at 75.2%.

Regarding `Cc1nn(C)c2nc(NCc3ccc(C(=O)N4CCCCC4)cc3)sc12` [CBK306826], the viability at 28.5 h, 10 µM amounted to 86.6%.
